Experiment: derived from PAMPA membrane permeability
Conditions: n-hexadecane (PAMPA-derived); buffer (PAMPA)

SMILES: CC(C)CN(C[C@@H](O)[C@H](Cc1ccccc1)NC(=O)O[C@H]1CCOC1)S(=O)(=O)c1ccc(N)cc1
- hexadecane/water partition coefficient derived from PAMPA flux (Khex/w): 0.01885 K (ratio)

SMILES: Cc1c(O)cccc1C(=O)N[C@@H](CSc1ccccc1)[C@H](O)CN1C[C@H]2CCCC[C@H]2C[C@H]1C(=O)NC(C)(C)C
- hexadecane/water partition coefficient derived from PAMPA flux (Khex/w): 0.398 K (ratio)

SMILES: c1ccc2c(c1)Sc1ccccc1N2CC1CN2CCC1CC2 (stereo not drawn)
- hexadecane/water partition coefficient derived from PAMPA flux (Khex/w): 2951 K (ratio)

SMILES: Clc1ccc2c(c1)CCc1cccnc1C2=C1CCNCC1
- hexadecane/water partition coefficient derived from PAMPA flux (Khex/w): 99.11 K (ratio)

SMILES: CC(C)(C)c1ccc(C(O)CCCN2CCC(C(O)(c3ccccc3)c3ccccc3)CC2)cc1 (stereo not drawn)
- hexadecane/water partition coefficient derived from PAMPA flux (Khex/w): 34105.6131886465 K (ratio)

SMILES: CN1CCC[C@@H]1Cc1c[nH]c2ccc(CCS(=O)(=O)c3ccccc3)cc12
- hexadecane/water partition coefficient derived from PAMPA flux (Khex/w): 1.2 K (ratio)

Reference: PMC12655371
